Measured values published in patent US5236934A, “1,2,3,4-tetrahydroisoquinolines useful in the treatment of CNS disorders” (E. I. Du Pont de Nemours and Company, priority 1992, dated 1993).
Where “and” joins values, the source holds several entries; their conditions need not be identical. Identical values can stand only once. Like-named read-outs stand apart in the source and are kept apart here.

How the values were obtained:
[1] = molecular target: T1, AT2 receptor (Rattus norvegicus, UniProt P35351); assay: [125I]AII binding to AT2 receptor, rat adrenal cortical microsomes, in the presence of 10^-5 M DuP 753 (DuP […]-insensitive sites)
T1 construct: AT1 and AT2 receptor subtypes in rat adrenal cortex microsomes; from tissue; host or cells: rat adrenal cortical microsomes (13,000-102,000 g)
T1 sequence (P35351 1-363): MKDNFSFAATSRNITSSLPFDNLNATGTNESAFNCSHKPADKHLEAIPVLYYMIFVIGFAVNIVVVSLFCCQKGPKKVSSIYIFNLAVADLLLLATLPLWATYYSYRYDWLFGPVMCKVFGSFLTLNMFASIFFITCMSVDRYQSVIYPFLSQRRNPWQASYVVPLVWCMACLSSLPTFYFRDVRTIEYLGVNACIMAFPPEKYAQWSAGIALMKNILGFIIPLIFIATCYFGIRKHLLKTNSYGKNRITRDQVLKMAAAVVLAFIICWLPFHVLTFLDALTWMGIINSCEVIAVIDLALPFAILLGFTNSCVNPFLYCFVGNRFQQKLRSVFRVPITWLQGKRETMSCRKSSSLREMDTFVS
Experimental: (§1) Procedures for the preparation of adrenal cortical microsomes and details of the binding assays are described in Chiu et al. (1989) J. Pharmacol. Exp. Ther. 250:867-874. The same procedures and conditions were used for adrenal medullary microsomes. […] After 60 min. of incubation, the reaction was terminated by addition of cold assay buffer. The bound and free radioactivity were rapidly separated through glass-fiber filters, and the trapped radioactivity was determined by gamma counting.

[2] = system: AT1 receptor; assay: [125I]AII binding to AT1 receptor, rat adrenal cortical microsomes, in the presence of 10^-5 M EXP-655 (DuP 753-sensitive sites)
Experimental: as §1

[3] = system: AII receptors of rat adrenal cortex; assay: Total specific [125I]AII binding to rat adrenal cortical microsomes
Experimental: After 60 min. of incubation, the reaction was terminated by addition of cold assay buffer. The bound and free radioactivity were rapidly separated through glass-fiber filters, and the trapped radioactivity was determined by gamma counting.

[4] = molecular target: T2, AII receptors of rat adrenal medulla (Rattus norvegicus, UniProt P35351); details: autoradiography; DuP 753 or EXP-655 at 10^-6 M
T2 sequence (P35351 1-363): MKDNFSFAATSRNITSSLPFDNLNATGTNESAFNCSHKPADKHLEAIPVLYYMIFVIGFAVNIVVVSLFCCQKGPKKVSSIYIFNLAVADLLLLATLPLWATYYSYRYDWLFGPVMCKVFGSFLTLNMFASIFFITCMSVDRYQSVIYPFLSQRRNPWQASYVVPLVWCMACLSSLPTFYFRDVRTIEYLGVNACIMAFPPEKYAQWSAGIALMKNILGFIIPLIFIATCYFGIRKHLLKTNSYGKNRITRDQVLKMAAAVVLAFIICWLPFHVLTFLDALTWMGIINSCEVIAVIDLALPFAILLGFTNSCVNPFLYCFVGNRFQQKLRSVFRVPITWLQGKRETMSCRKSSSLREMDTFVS
Experimental: (§2) Fresh tissue was frozen on powdered dry ice and stored at -70° C. until used. Sections were cut at 15 microns and thaw mounted onto gelatin subbed slides. […] Slides were placed under X-ray film (Kodak XAR-5) and exposed for 11/2 days before processing the film to produce the film autoradiograms. The slides were then fixed with paraformaldehyde vapor at 80° C. for two hours, dried under air, delipidated, and dipped in emulsion (Kodak NTB-2). The coated slides were exposed for 4-5 weeks, developed with Kodak D-19 and counter-stained with hemotoxylin-eosin to view the histology.

[5] = molecular target: T2, AII receptors of rat adrenal medulla; assay: [125I]AII binding to rat adrenal medullary microsomes; parameters: from tissue; host or cells: rat adrenal medullary microsomes; details: rat adrenal medulla
Experimental: as §1

[6] = system: AII binding sites of rat aortic smooth muscle cells; assay: AII receptor binding in rat aortic smooth muscle cells
[7] = system: AII receptors of rat adrenal cortex; assay type: binding; details: autoradiography; DuP 753 or EXP-655 at 10^-6 M
Experimental: as §2

[8] = system: AII receptor subtypes of rat adrenal cortical membranes; assay: [125I]AII binding to rat adrenal cortical membranes with and without DTT pretreatment
Source text: 102:685-696, except the above binding assay conditions were used.

[9] = system: AII receptors of rat adrenal medulla; assay: [125I]AII binding to rat adrenal medullary microsomes; details: rat adrenal medullary microsomes; for binding resistant to displacement: of total binding, 60 min
Experimental: as §1

[10] = system: chick chorioallantoic membrane; details: cited from earlier work
[11] = Blood pressure lowering in hypertensive animals (renal artery-ligated hypertensive rats); assay type: in vivo, rat; details: doses up to 30 mg/kg, IV
[12] = system: AII receptors of rat adrenal cortex; details: reported in U.S. Pat. No. 4,812,462; cited from earlier work
[13] = system: pial arterial dilation; details: rat cranial window, cited from earlier work
[14] = system: AII binding sites in the brain; assay: Distribution of AII binding sites in brain slices
Experimental: as §2

[15] = system: potassium current in cultured neurones; details: cited from earlier work
[16] = system: collagenase activity in cultured cardiac fibroblasts; details: cited from earlier work
[17] = system: rabbit aorta; assay: AII-induced rabbit aortic contractions; details: at concentrations of up to 10^-5 M
[18] = reported in U.S. Pat. No. 4,812,462; cited from earlier work
[19] = system: trypsin activated collagenase in rat heart myocytes; details: cited from earlier work
[20] = in vivo; cited from earlier work
[21] = cited from earlier work; for effect on avoidance learning: IVT
[22] = cited from earlier work
[23] = injected into the dorsal neostriatum; cited from earlier work
[24] = system: potassium stimulated release of [3H]ACh; details: in vitro; cited from earlier work
[25] = rat adrenal cortex microsomes, in the presence of 10^-5 M EXP-655, read-out: IC50 AT1

In the case of `O[C@H](CS)[C@H](O)CS` (racemic) [DTT, dithiothreitol], the “sensitivity of AT2 receptor to DTT” value [1] is reported as “resistant to DTT inactivation” and the “sensitivity of AT1 receptor to DTT” value [2] is reported as “particularly sensitive to inactivation by DTT”.

For `CCCCc1nc(Cl)c(CO)n1Cc1ccc(-c2ccccc2-c2nn[nH]n2)cc1` [DuP 753], the “plateau of constant binding” value ([3]; over a two-log concentration increase, 60 min) was “about 28 % of the total receptor-bound AII”, the “inhibition of total AII binding” value ([3]; rat adrenal cortex) was 80% and the IC50 ([3]; rat adrenal cortex, read-out: IC50 on the sensitive sites) was ~5 nM. For the same molecule, the IC50 ([3]; rat adrenal cortical microsomes, DuP 753-sensitive site, read-out: approximated IC50, first site of biphasic displacement) was ~5 nM, the “labeling of the adrenal medulla” value [4] was “not appreciably affected” and the “inhibition of AII binding” value [5] was “essentially inactive as an antagonist”. For the same molecule, the “sensitivity of AII binding sites, rat aortic smooth muscle cells” value [6] was “primarily the DuP 753-sensitive AII binding sites (AT1)”, the “labeling over the adrenal cortex” value [7] was “significantly reduced” and the “effect of DTT on inhibition of AII binding” value ([8]; 5 mM DTT) was “essentially abolished in the presence of DTT”. For the same molecule, the inhibition of binding ([9]; below 1×10^-6 M) was 10% and the “binding resistant to displacement” value [9] was “About 90%”.

For `Cc1cc(Cn2cnc3c2CC(C(=O)O)N(C(=O)C(c2ccccc2)c2ccccc2)C3)ccc1N` (stereo not shown) [EXP-655], the “inhibition of the total specific AII binding” value ([3]; at 3×10^-5 M, rat adrenal cortical microsomes) is listed as 20%, the “inhibition of total AII binding” value ([3]; rat adrenal cortex) is listed as 20% and the “block of angiotensin II-induced increase in microvascular density / angiogenesis” value [10] is listed as “shown to block”. The “labeling of the adrenal medulla” value [4] was “almost totally eliminated”, the “inhibition of AII binding” value [5] was 90% and the “labeling over the adrenal cortex” value [7] was “no apparent effect”. The lowering blood pressure [11] was “inactive”, the “affinity for AII receptors as reported” value [12] was “high affinity for AII receptors” and the “block of pial arterial/arteriolar dilation” value ([13]; listed as EXP 655) was “shown to block”. The “binding resistant to displacement” value [9] was 10%, the “sensitivity of AII binding sites in the brain” value [14] was “the majority of AII binding sites in the brain are DTT-insensitive, EXP-655-sensitive” and the “block of effect to increase potassium current” value [15] was “shown to block”. For the same molecule, the IC50 [2, 25] was ~300000 nM and 300000 nM, the IC50 ([2]; rat adrenal cortex, read-out: inhibitory constant IC50, AT1 site) was ~300000 nM and the “block of effect to inhibit collagenase activity” value [16] was “shown to block”. The “antagonizing AII-induced rabbit aortic contractions” value [17] was “inactive” and the “antihypertensive activity as reported” value [18] was “antihypertensive agent”.

With `COc1ccc(-c2cccc3c2CC(C(=O)O)N(C(=O)C(c2ccccc2)c2ccccc2)C3)cc1C` (stereo not shown) [Example 25] the IC50 [1] was 60 nM and the IC50 [2, 25] was > 10000 nM.

For `O=C(O)C1Cc2cc(Oc3ccccc3)ccc2CN1C(=O)C(c1ccccc1)c1ccccc1` (stereo not shown) [Example 32, 2-Diphenylacetyl-6-phenoxy-1,2,3,4-tetrahydroisoquinoline-3-carboxylic acid], the IC50 [1] was 70 nM and the IC50 [2, 25] was > 10000 nM.

In the case of `Cc1cc(Cn2cnc3c2CC(C(=O)O)N(C(=O)C(c2ccccc2)c2ccccc2)C3)ccc1N` (stereo not shown) [PD123177], the “block of angiotensin II induced inhibition of trypsin activated collagenase” value [19] is given as “block the angiotensin II induced inhibition of trypsin activated collagenase” and the “block of pial arterial/arteriolar dilation” value [13] is given as “block the pial arterial dilation”.

In the case of `NCCCC[C@H](OP(=O)(O)CCCCc1ccccc1)C(=O)N1CCC[C@H]1C(=O)O` [SQ 29852], the “memory of previously learned tasks” value [20] is listed as “protective effects on memory of previously learned tasks”.

With `CNCC(=O)N[C@@H](CCCN=C(N)N)C(=O)N[C@H](C(=O)N[C@@H](Cc1ccc(O)cc1)C(=O)N[C@H](C(=O)N[C@@H](Cc1cnc[nH]1)C(=O)N1CCC[C@H]1C(=O)N[C@@H](C)C(=O)O)C(C)C)C(C)C` [Saralasin] the “concentration giving complete displacement of AII” value ([3]; rat adrenal cortical microsomes) was 100 nM, the IC50 ([3]; rat adrenal cortical microsomes, read-out: IC50, monophasic) was 1 nM and the “effect of DTT on inhibition of AII binding” value ([8]; 5 mM DTT) was “not significantly altered by DTT”. The “preference for one AII receptor subtype relative to the other” value ([2]; AT1 vs AT2) was “no preference”.

In the case of `C[C@H](CS)C(=O)N1CCC[C@H]1C(=O)O` [captopril], the “effect on avoidance learning” value [21] is listed as “prevented the renin-induced avoidance disruption”, the “scopolamine-induced disruption of performance” value ([22]; daily treatment) is listed as “prevented” and the “light/dark habituation performance, rate of acquisition” value ([22]; subchronic treatment) is listed as “increased the rate of acquisition”.

For `NC(=O)[C@@H]1CCCN1C(=O)[C@H](Cc1cnc[nH]1)NC(=O)[C@@H]1CCC(=O)N1` [thyrotropin releasing hormone], the “effect on retention of PA response” value [23] is given as “no effect”.

For “AI: AI (compared with AII) (DRVYIHPFHL; Angiotensin-1; UniProt P01019 25-34, looked up)”, the “effect on potassium-stimulated release of ACh” value [24] is listed as “not AI”.

With “AII: octapeptide hormone which is a component of the renin-angiotensin system (DRVYIHPF; Angiotensin-2; UniProt P01019 25-32, looked up)” the “labeling of the adrenal medulla” value [4] was “potently inhibited the labeling”, the “labeling over the adrenal cortex” value [7] was “potently inhibited the labeling” and the “enhancement of inhibitory potency by DTT” value ([8]; 5 mM DTT) was 2.5 fold. The IC50 ([8]; read-out: IC50 in the absence of DTT, without DTT) was 1 nM, the “effect on retention of PA response” value [23] was “disruption in retention of a PA response” and the “effect on basal levels of ACh release” value [24] was “without effects on basal levels”. For the same molecule, the “effect on potassium-stimulated release of ACh” value [24] was “reduced potassium-stimulated release of ACh”.

For CGP42112A, the “block of angiotensin II-induced increase in microvascular density / angiogenesis” value [10] is listed as “block the increase in microvascular density”.

In the case of “[1-sarcosine, 8-threonine]angiotensin II”, the “effect on potassium-stimulated release of ACh” value [24] is given as “antagonized”.

In the case of lysine-8-vasopressin, the “effect on retention of PA response” value [23] is listed as “no effect”.

B1: renin: an enzyme involved in endogenous AII biosynthesis (protein, UniProt P00797 67-406, looked up)
Renin: LTLGNTTSSVILTNYMDTQYYGEIGIGTPPQTFKVVFDTGSSNVWVPSSKCSRLYTACVYHKLFDASDSSSYKHNGTELTLRYSTGTVSGFLSQDIITVGGITVTQMFGEVTEMPALPFMLAEFDGVVGMGFIEQAIGRVTPIFDNIISQGVLKEDVFSFYYNRDSENSQSLGGQIVLGGSDPQHYEGNFHYINLIKTGVWQIQMKGVSVGSSTLLCEDGCLALVDTGASYISGSTSSIEKLMEALGAKKRLFDYVVKCNEGPTLPDISFHLGGKEYTLTSADYVFQESYSSKKLCTLAIHAMDIPPPTGPTWALGATFIRKFYTEFDRRNNRIGFALAR
For B1, the “effect on avoidance learning” value [21] is given as “disruption of avoidance learning” and the “AII level in CSF after renin” value ([21]; increased from 40, renin IVT) is given as “about 5000 fmol per mL”.
